Test results published in ChEMBL document CHEMBL1153251, “Biaryl piperidines as potent and selective delta opioid receptor ligands” (Bioorg Med Chem Lett, 2010).

How the values were obtained:
[1] = target: T1, Delta-type opioid receptor (Homo sapiens, UniProt P41143); experiment: Displacement of [3H]diprenorphine from human delta opioid receptor expressed in CHO cells by liquid scintillation counting
[2] = target: T1, Delta-type opioid receptor; experiment: Antagonist activity at delta opioid receptor by GTPgammaS bunding assay; type: functional
[3] = target: Kappa-type opioid receptor (Homo sapiens, UniProt P41145); experiment: Displacement of [3H]diprenorphine from human kappa opioid receptor expressed in CHO cells by liquid scintillation counting
Kappa-type opioid receptor, sequence (P41145 whole entry): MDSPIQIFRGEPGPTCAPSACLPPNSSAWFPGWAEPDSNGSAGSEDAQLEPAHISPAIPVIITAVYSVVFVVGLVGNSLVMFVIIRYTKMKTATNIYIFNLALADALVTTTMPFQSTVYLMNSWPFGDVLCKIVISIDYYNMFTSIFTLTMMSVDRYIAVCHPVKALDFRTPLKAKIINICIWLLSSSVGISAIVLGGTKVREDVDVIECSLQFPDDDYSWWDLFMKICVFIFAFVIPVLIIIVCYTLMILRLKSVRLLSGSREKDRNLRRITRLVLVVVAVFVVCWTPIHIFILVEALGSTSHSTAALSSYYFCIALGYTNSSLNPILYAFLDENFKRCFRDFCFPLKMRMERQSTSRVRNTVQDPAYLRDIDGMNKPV

[4] = (§1) Clearance in human liver microsomes; type: ADME, Microsome; conditions: liver microsomes
Mu-type opioid receptor = Mu-type opioid receptor (Homo sapiens, UniProt P35372); experiment: Displacement of [3H]diprenorphine from human mu opioid receptor expressed in CHO cells by liquid scintillation counting
Mu-type opioid receptor, sequence (P35372 whole entry): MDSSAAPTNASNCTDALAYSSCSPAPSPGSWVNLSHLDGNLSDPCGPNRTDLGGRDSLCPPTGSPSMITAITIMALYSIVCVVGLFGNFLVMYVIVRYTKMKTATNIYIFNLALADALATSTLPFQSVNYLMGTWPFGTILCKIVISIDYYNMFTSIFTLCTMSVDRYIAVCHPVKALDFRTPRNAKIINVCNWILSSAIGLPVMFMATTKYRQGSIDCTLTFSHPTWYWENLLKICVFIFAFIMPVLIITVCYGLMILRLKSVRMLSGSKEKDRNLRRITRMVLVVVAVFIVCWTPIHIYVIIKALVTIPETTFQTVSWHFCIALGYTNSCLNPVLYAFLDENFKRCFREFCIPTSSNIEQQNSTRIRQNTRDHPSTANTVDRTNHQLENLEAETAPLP

Liver microsomes = experiment: as §1; type: ADME, Microsome; conditions: microsomes

T1 sequence (P41143 whole entry): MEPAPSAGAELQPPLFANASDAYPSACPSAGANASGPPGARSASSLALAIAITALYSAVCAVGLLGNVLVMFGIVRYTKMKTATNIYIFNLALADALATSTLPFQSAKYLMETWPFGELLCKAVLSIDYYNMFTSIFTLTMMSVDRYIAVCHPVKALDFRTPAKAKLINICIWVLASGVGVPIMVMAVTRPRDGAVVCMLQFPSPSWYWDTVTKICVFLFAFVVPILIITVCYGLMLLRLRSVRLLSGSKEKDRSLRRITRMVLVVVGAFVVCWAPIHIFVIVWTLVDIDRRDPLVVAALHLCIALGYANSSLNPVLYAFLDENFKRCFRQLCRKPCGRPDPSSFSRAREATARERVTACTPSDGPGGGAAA

| Structure (SMILES) | Ki [1] [nM] | IC50 [2] [nM] | Ki [3] [nM] | CLint scaled [4] [mL/min/kg] | Ki (Mu-type opioid receptor) [nM] | CL (Liver microsomes) |
| --- | --- | --- | --- | --- | --- | --- |
| CCN(CC)C(=O)c1ccc(C2(c3cccc(O)c3)CCCN(Cc3nccs3)C2)cc1 (stereo not drawn) | 3.5 | 16 | 163 | > 300 | > 890 |  |
| CCN(CC)C(=O)c1ccc(C2(c3cccc(O)c3)CCCN(Cc3ncc[nH]3)C2)cc1 (stereo not drawn) | 1.2 |  | > 890 | 230 | > 890 |  |
| CCCC(C)CN1CCC(c2ccc(C(=O)N(C)C)cc2)(c2cccc(O)c2)CC1 (stereo not drawn) | 11 | 72 | 150 | 80 | > 890 |  |
| CCN(CC)C(=O)c1ccc(C2(c3cccc(O)c3)CCCN(CC(F)(F)F)C2)cc1 (stereo not drawn) | 2.9 |  | 24 | > 300 | > 890 |  |
| CC(C)(O)c1ccc(C2(c3cccc(O)c3)CCCN(CC3CC3)C2)cc1 (stereo not drawn) | 39 |  | 41 | 22 | 110 |  |
| CCCCN1CCCC(c2ccc(C(=O)N(CC)CC)cc2)(c2cccc(O)c2)C1 (stereo not drawn) | 6.2 | 55 | > 890 | 113 | > 890 |  |
| CCN(C)C(=O)c1ccc(C2(c3cccc(O)c3)CCCN(CC3CC3)C2)cc1 (stereo not drawn) | 2.2 |  | 66 | 70 | 52 |  |
| CCN(CC)C(=O)c1ccc(C2(c3cccc(O)c3)CCCN(CC3CC3)C2)cc1 (stereo not drawn) | 0.8 | 7.1 | 24 | 89 | 35 |  |
| CCCC(C)CN1CCC(c2ccc(C(O)(CC)CC)cc2)(c2cccc(C(N)=O)c2)CC1 (stereo not drawn) | 2 | 4.7 | 45 | 108 | 380 |  |
| CCN(CC)C(=O)c1ccc(C2(c3cccc(O)c3)CCN(CC3CC3)CC2)cc1 | 9 | 155 | 440 | 62.9 | > 890 |  |
| CCCC(C)CN1CCC(c2ccc(C(=O)N(CC)CC)cc2)(c2cccc(O)c2)CC1 (stereo not drawn) | 1.8 |  | > 890 |  | > 890 | Not Active |
| CCN(CC)C(=O)c1ccc(C2(c3cccc(O)c3)CCN(CCc3ccccc3)CC2)cc1 | 0.9 |  | 95 | 239 | 66.5 |  |
| CCN(CC)C(=O)c1ccc(C2(c3cccc(C(N)=O)c3)CCCN(Cc3nccs3)C2)cc1 (stereo not drawn) | 7 | 12 | > 890 |  | > 890 | Not Active |
| CCC(O)(CC)c1ccc(C2(c3cccc(C(N)=O)c3)CCN(CC3CC3)CC2)cc1 | 2.3 | 282 | 79 | 26.1 | > 890 |  |
| C=CCN1CCC(c2ccc(C(=O)N(CC)CC)cc2)(c2cccc(O)c2)CC1 | 1.9 |  | 347 | 34.6 | > 890 |  |
